Where a chain is given by its changes, count along the chain named.
Experiments:
[1] = molecular target: T1, ALDH2 (Homo sapiens, UniProt P05091); experiment: ALDH2 activity with 20 μM of the compound (Table 3); assay type: biochemical; conditions: 20 μM compound
T1 construct: His-tag (N); made in house; host or cells: E. coli BL21
T1 sequence (P05091 18-517): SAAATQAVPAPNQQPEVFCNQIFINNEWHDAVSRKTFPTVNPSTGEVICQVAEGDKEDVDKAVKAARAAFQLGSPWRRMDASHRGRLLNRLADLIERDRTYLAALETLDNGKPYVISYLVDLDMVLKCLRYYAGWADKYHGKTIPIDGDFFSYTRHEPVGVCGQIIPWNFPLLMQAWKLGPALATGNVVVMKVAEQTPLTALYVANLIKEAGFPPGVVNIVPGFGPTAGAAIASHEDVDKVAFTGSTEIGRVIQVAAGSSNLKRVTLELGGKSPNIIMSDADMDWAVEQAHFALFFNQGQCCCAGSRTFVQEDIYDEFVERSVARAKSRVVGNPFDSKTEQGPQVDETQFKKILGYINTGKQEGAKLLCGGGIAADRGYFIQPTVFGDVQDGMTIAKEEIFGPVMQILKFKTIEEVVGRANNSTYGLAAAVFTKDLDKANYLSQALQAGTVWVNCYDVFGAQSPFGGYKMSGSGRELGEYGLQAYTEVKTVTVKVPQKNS
Outline: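 Compound was tested at 20 μM. ALDH2 oxidation of acetaldehyde with NAD+ cofactor was followed spectrophotometrically as NADH accumulation at 340 nm. Activity is expressed relative to the enzyme's baseline activity, taken as 100%.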

[2] = molecular target: T2, ALDH2*1/*2 (Homo sapiens, UniProt P05091, E504K); experiment: ALDH2 enzymatic activity, NADH accumulation at 340 nm, acetaldehyde substrate, heterozygous form; assay type: biochemical; conditions: relative to baseline enzymatic activity (100%)
T2 construct: His-tag; made in house; host or cells: E. coli BL21 (pETDuet-1 co-expression)
T2 sequence (P05091 18-517): T1 sequence (P05091 18-517)
T2 sequence (P05091 18-517 E504K): T1 sequence (P05091 18-517) with E487K
Protocol: (§1) ALDH2 catalyzes the oxidative reaction of substrate acetaldehyde to acetic acid using NAD^+ as a cofactor. Enzymatic activity, or catalytic rate, of aldehyde dehydrogenase (ALDH2) are measured spectrophotometrically at UV wavelength λ340 nm by the accumulation of reduced product NADH derived from NAD^+. Absorbance at λ340 nm is quantitatively proportional to the amount of NADH being produced over time (6.22 O.D. unit=1 mmol of NADH, measured in a 1-cm width standard cuvette). This method is well-established in the literature [e.g. Rex et al., Alcohol Clin. Exp. Res. 9, 147 (1985)].
as §1, with “can be” for “are”
Cloning, expression and purification of human ALDH2 wild type and ALDH2*2 recombinant mutant enzymes: Full-length wild type human ALDH2 cDNA was purchased from ATCC (No. MGC-1806. GenBank ID: BC002967). The 18-amino acid mitochondria transport signal sequence was removed by PCR and cloned into the NheI/HindIII sites of a His-tag vector, pTrcHis, using standard molecular cloning techniques. The human ALDH2* cDNA construct containing the Asian E487K mutation was obtained by site-directed mutagenesis to create the E487K substitution of the wild type ALDH2. Both human clones were designed to express a recombinant protein with the His-tag at the N-terminus of the protein. For the co-expression experiments of human ALDH2 wild type and ALDH2*2 heterotetramers, a wild type ALDH2 gene and a ALDH2 E487K gene were inserted separately into the two multiple cloning sites of pETDuet-1 vector. (Novagen, CA, USA). All the vectors were transformed into BL21 E. coli host cells and subjected to 0.5 mM IPTG induction for protein expression at 30° C. Purifications of the recombinant proteins by affinity nickel columns (HisTrap, GE Healthy Science, USA) were carried out using standard protocols according to manufacturer's instructions (Novagen, USA).
ALDH2 catalyzes the oxidative reaction of substrate acetaldehyde to acetic acid using NAD^+ as a cofactor. Enzymatic activity, or catalytic rate, of aldehyde dehydrogenase (ALDH2) can be measured spectrophotometrically at UV wavelength λ340 nm by the accumulation of reduced product NADH derived from NAD^+. Because compounds of formula (I) are considered to be agonists or “activators” of ALDH2 the enzymatic activity measured will exceed 100% of the baseline enzymatic activity of the enzyme in its normal activation state. As the concentration of the compounds of formula (I) decreases from 20 micromolar to 0.16 micromolar in the presence of ALDH, a decrease in the activation of enzymatic activity is observed for the wild-type ALDH2*1/*1 and the heterozygous form ALDH2*1/*2.

activity at 20 µM [1]: > 250% | activity at 2.5 µM ([2]; 2.5 μM compound): 202% | activity at 5 µM ([2]; 5 μM compound): 260% | activity at 10 µM ([2]; 10 μM compound): 281% | activity at 20 µM ([2]; 20 μM compound): 336%
SMILES: COc1ccc(CNC(=O)c2cc(-c3ncccc3CO)ccc2OCC2CC2)cc1F [AC6]

Reference: patent US9879036B2, “Mitochondrial aldehyde dehydrogenase-2 binding compounds and methods of use thereof” (Aviv Therapeutics, Inc., priority 2014, dated 2018)
